According to patent publication US20200222474A1, “COMPOSITIONS AND METHODS FOR INCREASING PHYTOCHEMICAL BIOAVAILABLITY AND BIOACTIVITY” (North Carolina State University, priority 2017, published 2020):

System: L. acidophilus NCFM
Test: RNA-seq transcriptional analysis of L. acidophilus NCFM growing on plant glycosides
Format: cell-based, Lactobacillus acidophilus
[1] = gene LBA0282 (Hypothetical protein)
[2] = gene LBA0327 (Replication protein)
[3] = gene LBA0328 (Hypothetical protein)
[4] = gene LBA0330 (Hypothetical protein)
[5] = gene LBA0457 (Hypothetical protein)
[6] = gene LBA0485 (Hypothetical protein)
[7] = gene LBA0486 (Hypothetical protein)
[8] = gene LBA0487 (Hypothetical protein.)
[9] = gene LBA0492 (Hypothetical protein)
[10] = gene LBA0541 (Cadmium-transporting ATPase)
[11] = gene LBA0542 (Putative heavy-metal-transporting alpase)
[12] = gene LBA0543 (Hypothetical protein)
[13] = gene LBA0544 (Transcriptional regulator)
[14] = gene LBA0555 (Myosin-crossreactive antigen)
[15] = gene LBA0564 (HAD family hydrolase)
[16] = gene LBA0574 (ABC multi drug exporter)
[17] = gene LBA0575 (ABC multi drug exporter)
[18] = gene LBA0604 (Immunity protein)
[19] = gene LBA0605 (Putative hydrolase)
[20] = gene LBA0608 (Hypothetical protein)
[21] = gene LBA0631 (Hypothetical protein)
[22] = gene LBA0649 (Myosin-crossreactive antigen)
[23] = gene LBA0728 (Hypothetical protein LBA0728)
[24] = gene LBA1025 (Aldo/keto reductase family oxidoreductase)
[25] = gene LBA1026 (Aldo/keto reduetase family oxidoreductase)
[26] = gene LBA1206 (Hypothetical protein)
[27] = gene LBA1401 (Peroxidase (Npx))
[28] = gene LBA1435 (Hypothetical protein)
[29] = gene LBA1455 (Putative surface layer protein)
[30] = gene LBA1469 (UDP-glucose 4-epimerase)
[31] = gene LBA1656 (Hypothetical protein)
[32] = gene LBA1675 (Hypothetical protein)
[33] = gene LBA1676 (ATP-dependent helicase)
[34] = gene LBA1683 (Putative magnesium-transporting atpase)
[35] = gene LBA1704 (N-Acetylmuramic acid-6-phosphate etherase)
[36] = gene LBA1740 (Hypothetical protein)
[37] = gene LBA1752 (Hypothetical protein)
[38] = gene LBA1769 (Hypothetical protein)
[39] = gene LBA1793 (Hypothetical protein)
[40] = gene LBA1869 (Beta-phosphoglueomutase)
[41] = gene LBA1895 (Hypothetical protein)
[42] = nTPM on plant glycoside relative to glucose, mid-exponential phase

## O=c1ccc2cc(O[C@@H]3O[C@H](CO)[C@@H](O)[C@H](O)[C@H]3O)c(O)cc2o1 [Esculin]
[1]
  Log2 differential normalized TPM ratio compared to glucose: 2.1
  Log2 differential normalized TPM ratio compared to lactose: 1.4
  Transcripts per million (rpm): 92.4 rpm
[2]
  Log2 differential normalized TPM ratio compared to glucose: 2.4
  Log2 differential normalized TPM ratio compared to lactose: 2.1
  Transcripts per million (rpm): 43.4 rpm
[3]
  Log2 differential normalized TPM ratio compared to glucose: 1.9
  Log2 differential normalized TPM ratio compared to lactose: 2
  Transcripts per million (rpm): 55.9 rpm
[4]
  Log2 differential normalized TPM ratio compared to glucose: 3.3
  Log2 differential normalized TPM ratio compared to lactose: 2.9
  Transcripts per million (rpm): 211.2 rpm
[5]
  Log2 differential normalized TPM ratio compared to glucose: 2.1
  Log2 differential normalized TPM ratio compared to lactose: 1.1
  Transcripts per million (rpm): 2243.1 rpm
[6]
  Log2 differential normalized TPM ratio compared to glucose: 2
  Log2 differential normalized TPM ratio compared to lactose: −0.4
  Transcripts per million (rpm): 868.4 rpm
[7]
  Log2 differential normalized TPM ratio compared to glucose: 2.3
  Log2 differential normalized TPM ratio compared to lactose: −0.5
  Transcripts per million (rpm): 1210.2 rpm
[8]
  Log2 differential normalized TPM ratio compared to glucose: 1
  Log2 differential normalized TPM ratio compared to lactose: −0.3
  Transcripts per million (rpm): 69.1 rpm
[9]
  Log2 differential normalized TPM ratio compared to glucose: 3.7
  Log2 differential normalized TPM ratio compared to lactose: 1.2
  Transcripts per million (rpm): 108.4 rpm
[10]
  Log2 differential normalized TPM ratio compared to glucose: 1.9
  Log2 differential normalized TPM ratio compared to lactose: −0.3
  Transcripts per million (rpm): 138.8 rpm
[11]
  Log2 differential normalized TPM ratio compared to glucose: 1.9
  Log2 differential normalized TPM ratio compared to lactose: −0.3
  Transcripts per million (rpm): 337.4 rpm
[12]
  Log2 differential normalized TPM ratio compared to glucose: 2
  Log2 differential normalized TPM ratio compared to lactose: −0.4
  Transcripts per million (rpm): 278.7 rpm
[13]
  Log2 differential normalized TPM ratio compared to glucose: 1.6
  Log2 differential normalized TPM ratio compared to lactose: −0.3
  Transcripts per million (rpm): 342.2 rpm
[14]
  Log2 differential normalized TPM ratio compared to glucose: 2
  Log2 differential normalized TPM ratio compared to lactose: 0.1
  Transcripts per million (rpm): 186.9 rpm
[15]
  Log2 differential normalized TPM ratio compared to glucose: 1.4
  Log2 differential normalized TPM ratio compared to lactose: 0.9
  Transcripts per million (rpm): 2.8 rpm
[16]
  Log2 differential normalized TPM ratio compared to glucose: 2.4
  Log2 differential normalized TPM ratio compared to lactose: 2.1
  Transcripts per million (rpm): 490.6 rpm
[17]
  Log2 differential normalized TPM ratio compared to glucose: 2.2
  Log2 differential normalized TPM ratio compared to lactose: 2
  Transcripts per million (rpm): 381 rpm
[18]
  Log2 differential normalized TPM ratio compared to glucose: −0.3
  Log2 differential normalized TPM ratio compared to lactose: −0.8
  Transcripts per million (rpm): 12.5 rpm
[19]
  Log2 differential normalized TPM ratio compared to glucose: 2.4
  Log2 differential normalized TPM ratio compared to lactose: 1.4
  Transcripts per million (rpm): 15.5 rpm
[20]
  Log2 differential normalized TPM ratio compared to glucose: 2.3
  Log2 differential normalized TPM ratio compared to lactose: 1.2
  Transcripts per million (rpm): 183.9 rpm
[21]
  Log2 differential normalized TPM ratio compared to glucose: 2.9
  Log2 differential normalized TPM ratio compared to lactose: −0.2
  Transcripts per million (rpm): 9527.2 rpm
[22]
  Log2 differential normalized TPM ratio compared to glucose: 1.9
  Log2 differential normalized TPM ratio compared to lactose: 1.2
  Transcripts per million (rpm): 154.8 rpm
[23]
  Log2 differential normalized TPM ratio compared to glucose: 4.8
  Log2 differential normalized TPM ratio compared to lactose: 3
  Transcripts per million (rpm): 70.6 rpm
Gene LBA0861 (Polyferredoxin)
  Log2 differential normalized TPM ratio compared to glucose: 2
  Log2 differential normalized TPM ratio compared to lactose: 1.5
  Transcripts per million (rpm): 785.8 rpm
Gene LBA1023 (Oxidoreductase)
  Log2 differential normalized TPM ratio compared to glucose: 2.3
  Log2 differential normalized TPM ratio compared to lactose: 2
  Transcripts per million (rpm): 911.4 rpm
[24]
  Log2 differential normalized TPM ratio compared to glucose: 2.7
  Log2 differential normalized TPM ratio compared to lactose: 2.7
  Transcripts per million (rpm): 210.8 rpm
[25]
  Log2 differential normalized TPM ratio compared to glucose: 2.3
  Log2 differential normalized TPM ratio compared to lactose: 1.9
  Transcripts per million (rpm): 162.5 rpm
Gene LBA1027 (Oxidoreductase)
  Log2 differential normalized TPM ratio compared to glucose: 2.1
  Log2 differential normalized TPM ratio compared to lactose: 0.6
  Transcripts per million (rpm): 2680.9 rpm
[26]
  Log2 differential normalized TPM ratio compared to glucose: 2.2
  Log2 differential normalized TPM ratio compared to lactose: 1
  Transcripts per million (rpm): 636.7 rpm
[27]
  Log2 differential normalized TPM ratio compared to glucose: 3.1
  Log2 differential normalized TPM ratio compared to lactose: 1
  Transcripts per million (rpm): 609.8 rpm
[28]
  Log2 differential normalized TPM ratio compared to glucose: 5
  Log2 differential normalized TPM ratio compared to lactose: 1.3
  Transcripts per million (rpm): 142.3 rpm
[29]
  Log2 differential normalized TPM ratio compared to glucose: 0.7
  Log2 differential normalized TPM ratio compared to lactose: −0.9
  Transcripts per million (rpm): 28.7 rpm
[30]
  Log2 differential normalized TPM ratio compared to glucose: 2.1
  Log2 differential normalized TPM ratio compared to lactose: −2.9
  Transcripts per million (rpm): 385 rpm
[31]
  Log2 differential normalized TPM ratio compared to glucose: 1.2
  Log2 differential normalized TPM ratio compared to lactose: 0.6
  Transcripts per million (rpm): 48.5 rpm
[32]
  Log2 differential normalized TPM ratio compared to glucose: 2.2
  Log2 differential normalized TPM ratio compared to lactose: 0.8
  Transcripts per million (rpm): 1975.8 rpm
[33]
  Log2 differential normalized TPM ratio compared to glucose: 2
  Log2 differential normalized TPM ratio compared to lactose: 0.8
  Transcripts per million (rpm): 1361.3 rpm
[34]
  Log2 differential normalized TPM ratio compared to glucose: 0.3
  Log2 differential normalized TPM ratio compared to lactose: 0.5
  Transcripts per million (rpm): 20.5 rpm
[35]
  Log2 differential normalized TPM ratio compared to glucose: 1.6
  Log2 differential normalized TPM ratio compared to lactose: 0.9
  Transcripts per million (rpm): 21.2 rpm
[36]
  Log2 differential normalized TPM ratio compared to glucose: 2.4
  Log2 differential normalized TPM ratio compared to lactose: 1.6
  Transcripts per million (rpm): 95.9 rpm
[37]
  Log2 differential normalized TPM ratio compared to glucose: 2.3
  Log2 differential normalized TPM ratio compared to lactose: 1.4
  Transcripts per million (rpm): 42.9 rpm
[38]
  Log2 differential normalized TPM ratio compared to glucose: 1.9
  Log2 differential normalized TPM ratio compared to lactose: 0
  Transcripts per million (rpm): 6023.9 rpm
[39]
  Log2 differential normalized TPM ratio compared to glucose: 0.7
  Log2 differential normalized TPM ratio compared to lactose: −2.1
  Transcripts per million (rpm): 28.5 rpm
Gene LBA1796 (ABC exporter)
  Log2 differential normalized TPM ratio compared to glucose: 1.9
  Log2 differential normalized TPM ratio compared to lactose: −0.6
  Transcripts per million (rpm): 35.2 rpm
[40]
  Log2 differential normalized TPM ratio compared to glucose: 4.2
  Log2 differential normalized TPM ratio compared to lactose: 1.8
  Transcripts per million (rpm): 156.4 rpm
[41]
  Log2 differential normalized TPM ratio compared to glucose: 1.4
  Log2 differential normalized TPM ratio compared to lactose: 1.2
  Transcripts per million (rpm): 74.5 rpm
[42]
  Log2 Ratio vs Glc, LBA0225 Phospho-β-glucosidase (GH1): −0.2
  Log2 Ratio vs Glc, LBA0227 PTS EIIC: 0.8
  Log2 Ratio vs Glc, LBA0228 Transcriptional regulator: 0.9
  Log2 Ratio vs Glc, LBA0466 Phosphoenolpyruvate carboxykinase (ATP): 2
  Log2 Ratio vs Glc, LBA0491 PTS EIIC: 3.4
  Log2 Ratio vs Glc, LBA0492 Hypothetical protein: 3.7
  Log2 Ratio vs Glc, LBA0555 Myosin-cross-reactive antigen/Fatty acid hydratase: 2
  Log2 Ratio vs Glc, LBA0606 PTS EIIBC: 2.8
  Log2 Ratio vs Glc, LBA0631 Hypothetical protein: 2.9
  Log2 Ratio vs Glc, LBA0724 Transcriptional regulator (antiterminator): 5.5
  Log2 Ratio vs Glc, LBA0725 PTS EIICBA: 9.8
  Log2 Ratio vs Glc, LBA0726 Phospho-β-glucosidase (GH1): 6.9
  Log2 Ratio vs Glc, LBA0728 Hypothetical protein: 4.8
  Log2 Ratio vs Glc, LBA0876 PTS EIIC: 2.9
  Log2 Ratio vs Glc, LBA0877 PTS EIIA: 3
  Log2 Ratio vs Glc, LBA1401 Peroxidase (Npx): 3.1
  Log2 Ratio vs Glc, LBA1411 Fumarate reductase flavoprotein subunit: 1.7
  Log2 Ratio vs Glc, LBA1433 Dihydroxyacetone kinase: 3.7
  Log2 Ratio vs Glc, LBA1434 Dihydroxyacetone kinase: 4.5
  Log2 Ratio vs Glc, LBA1435 Hypothetical protein: 5
  Log2 Ratio vs Glc, LBA1436 Glycerol uptake facilitator protein: 4.9
  Log2 Ratio vs Glc, LBA1632 NAD-dependent aldehyde dehydrogenase: 3.3
  Log2 Ratio vs Glc, LBA1684 PTS EIIA: 2.9
  Log2 Ratio vs Glc, LBA1689 Maltose-6′-phosphate glucosidase (GH4): 1.8
  Log2 Ratio vs Glc, LBA1701 Melibiose operon regulatory protein: 4.9
  Log2 Ratio vs Glc, LBA1709 Mucus binding protein precursor: 3.6
  Log2 Ratio vs Glc, LBA1797 Hypothetical protein: 2.6
  Log2 Ratio vs Glc, LBA1812 α-Glucosidase II (GH31): 2.8
  Log2 Ratio vs Glc, LBA1869 β-Phosphoglucomutase: 4.2
  Log2 Ratio vs Glc, LBA1871 Neopullulanase (GH13): 2.1
  Log2 Ratio vs Glc, LBA1873 Acetate kinase: 0.8
  Log2 Ratio vs Glc, LBA1974 Pyruvate oxidase: 3.6
